Test system: plasmacytoid dendritic cells
Experiment: IL-10 secretion from plasmacytoid dendritic cells induced with various toll-like receptor agonists, ELISA (Example 3)
Format: cell-based, C57BL/6 mice
Conditions: stimulated with ODN1826 1 μg/ml, 24 hours; vs non-treatment
From the text: In order to check the immune tolerance inducing effect of various toll-like receptor agonists, differentiation into the plasmacytoid dendritic cells was induced by the same method as in Example 1. Ligands listed in Table 2 were used as the toll-like receptor agonist. From the cells obtained after 8 days of culture, the plasmacytoid dendritic cells were separated at a purity equal to or greater than 85% by a plasmacytoid dendritic cell separation kit (Miltenyi Biotec, Auburn, Calif.) and a magnetic cell sorting system (Vario MACS: Miltenyi Biotec, Auburn, Calif.). The separated cells (5×10^5 cells/ml) were inoculated into a 48 well plate. ODN1826 (1 μg/ml) was applied thereto and the cells were cultured for 24 hours. Then, supernatant was separated. The secretion pattern of the immunosuppressive cytokine IL-10 was then checked by ELISA (enzyme linked immunosorbent assay).

| Compound | expression level of IL-10 from plasmacytoid dendritic cells differentiated via treatment with the agonist |
| --- | --- |
| LPS [TLR4 agonist] | significantly increased |
| CC(C)Cn1cnc2c(N)nc3ccccc3c21 [TLR7 agonist, Imiquimod] | significantly increased |
| Pam3 [TLR2 agonist] | significantly increased |
